Results as given in patent US20250177338A1 (URIACH ITALY S.R.L., priority 2022, published 2025).

Experiments:
NSC-34/IFRS1 co-culture = assay: Mitochondrial metabolism at Peripheral Nervous System level; type: cell-based, rat; settings: added to NAC 12 mM, VitD 100 nM, G 5 mM
Protocol: In order to recreate a peripheral nervous system in vitro, a myelinating co-culture system was used with an NSC-34 motor neuron-like cell line and an IFRS1 adult rat Schwann cell line according to a protocol reported in the literature. IFRS1 cells were seeded on 100-mm plastic discs (Greiner Bio-One GmbH, Frickenhausen, Germany, 664-160-013) at an approximate density of 2×10^4/cm^2 and maintained in DMEM containing 5% FBS, recombinant human eregulin-β (EMD Millipore, Billerica, MA, USA) 20 ng/mL, forskolin (Sigma, St. Louis, MO, USA) 5 μM and antifungal antibiotic solution (penicillin 100 U/mL, streptomycin 100 μg/mL and amphotericin 250 ng/mL; Sigma). NSC-34 cells were seeded on 100-mm plastic discs at an approximate density of 1×10^4/cm^2 and maintained in DMEM containing antibiotic antifungal solution and 5% FBS. At semi-confluence, cells were detached from the discs using 0.05% trypsin/EDTA 0.53 mM solution, suspended in DMEM/F12 Ham containing 5% FBS in a 50 mL polypropylene conical tube, and reseeded on Aclar fluorocarbon coverslips coated with poly-L-lysine/laminine, 12-well culture plates coated with type I collagen, and 2-well glass chamber slides coated with type I collagen at an approximate density of 2×10^3/cm^2. […]

HepG2 = assay: Hepatic absorption test; type: in vitro ADME, Human; settings: NAC 12 mM, VitD 100 nM, G 5 mM, LA 50 μM
Protocol: Human epithelial cells (HepG2) were purchased from ATCC, and cultured in DMEM supplemented with 10% FBS, L-glutamine 2 mM and 1% penicillin-streptomycin, at 37° C., 5% CO2.

ERK/MAPK = settings: liver level; NAC 12 mM, VitD 100 nM, G 5 mM, LA 50 μM
Protocol: Human epithelial cells (HepG2) were purchased from ATCC, and cultured in DMEM supplemented with 10% FBS, L-glutamine 2 mM and 1% penicillin-streptomycin, at 37° C., 5% CO2. […] ERK/MAPK activity was measured by InstantOne™ ELISA (Thermo Fisher) on cell lysates following the manufacturer's instructions. The strips were measured by a spectrometer (VICTOR X4, multiwell plate reader) at 450 nm. Results were expressed as mean absorbance (%) compared with control.

GTL-16 cell line = settings: pre-digested model, 2, 3, 4 and 6 hours; NAC 12 mM, VitD 100 nM, G 5 mM
Protocol: The GTL-16 cell line, donated by the Laboratory of Histology, University of Eastern Piedmont (Italy), is a clonal line derived from a poorly differentiated gastric carcinoma cell line widely used as a model of gastric epithelial cells. Cells were cultured in Dulbecco's Modified Eagle medium (DMEM, Merck Life Science, Rome, Italy) supplemented with 10% fetal bovine serum (Fetal Bovine Serum, FBS), 1% penicillin-streptomycin, in an incubator at 37° C., 5% CO2. 1×10^4 cells were used to explore cell viability by MTT.
At the end of stimulation, cells were incubated with 1% MTT dye for 2 h at 37° C. in an incubator, 5% CO2 and 95% humidity, and then purple formazan crystals were dissolved in an equal volume of MTT solubilization solution.

Compound	mitochondrial activity (NSC-34/IFRS1 co-culture)	hepatic absorption (HepG2)	ERK activity (ERK/MAPK)	cell viability (GTL-16 cell line)
Vitamin D [VitD]	contributes to increased mitochondrial activity	–	–	–
N[C@@H](CCC(=O)N[C@@H](CS)C(=O)NCC(=O)O)C(=O)O [glutathione, (2S)-2-amino-5-[[(2R)-1-(carboxymethylamino)-1-oxo-3-sulfanylpropan-2-yl]amino]-5-oxopentanoic acid]	–	further increases hepatic absorption	further enhances the conservation of these biological activities	contributes to increased cell viability
